Where “and” joins values, the source holds several entries; their conditions need not be identical. Identical values can stand only once.
Columns and labels:
HT-29 cells / U937 cells = assay: TNF-α-induced adhesion of HT-29 intestinal epithelial cells and U937 mononuclear cells; format: cell-based, human; details: Homo sapiens; 1 μM, pre-treated 1 hour; TNF-α 10 ng/ml; read-out: Inhibitory rates (%)
In short: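 HT-29 cells were pretreated with compound for 1 h in serum-free medium, then stimulated with TNF-α 10 ng/ml for 3 h at 37 °C. BCECF-AM-labelled U937 cells were co-incubated for 1 h at 37 °C. Non-adherent cells were washed off, and lysates in 0.1% Triton X-100/0.1 M Tris were read by fluorescence.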

A549 lung cancer cells = assay: CAM inoculated with A549 lung cancer cells: angiogenesis and tumor growth; format: in vivo, chicken; details: for Inhibition rates of angiogenesis (%) / Inhibition rates of tumor growth (%): A549 on CAM, 5 days; for inhibitory effects on angiogenesis and tumor growth (in words): at each density
Protocol: To confirm inhibitory effects on angiogenesis through in vivo experiments, the CAM analysis was carried out (refer to Nguyen M et al., Microvascular Res., 47, pp 31-40, 1994). A fertilized egg of a chicken was cultured in conditions maintaining a temperature of 37° C. and relative humidity of 55%. On the 9th day of the culturing, a first small hole was made on an air sac part using a hypodermic needle (Green Cross Medical Corp., Korea), and then, a second hole was made on a flat part of the fertilized egg to make a window thereon. Air was removed through the first hole, i.e., the air sac part, and accordingly, the CAM was separated from the shell of the fertilized egg. Then, a grinding wheel (Multipro 395JA, Dremel, Mexico) was used to cut the air sac part, thereby making a window thereon. Meanwhile, A549 lung cancer cells were mixed with matrigel at a ratio of 1:1, and then, the mixture was treated with Compounds 8a, 8b, and 8g, respectively, followed by being inoculated at a density of 1.5×10^6 cells/CAM.
After 5 days of the inoculation, the CAM part on which tumors were formed was isolated, and then, washed with PBS. The Stemi SV6 stereomicroscope (Carl Zeiss, Germany) and the Image-Pro Plus software (Media Cybernetics; Silver Spring, Md., USA) were used to capture images of the CAM part, so as to measure the number of the blood vessels and to analyze data obtained therefrom.

[1] = tested on: VEGF-induced angiogenesis in chicken chorioallantoic membrane (CAM); assay: CAM analysis of VEGF-induced angiogenesis; format: in vivo; details: for inhibition in vivo at 0.01 nmol/CAM: Gallus gallus, 72 h, VEGF (20 ng/CAM) + Compound (0.01 nmol/CAM), number of blood vessels after 3 days, read-out: Inhibitory rates (%); for ID50 against inhibition of angiogenesis: VEGF-induced CAM angiogenesis
In short: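 Fertilized chicken eggs incubated at 37° C, 55% humidity; on day 10 a window was opened and a cortisone acetate (3 mg/mL)-treated filter disk carrying VEGF at 20 ng/CAM was placed on vessels. Compounds in DMSO/PBS were applied at several concentrations for 3 days; blood vessel number under the disk was counted by stereomicroscopy.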

ARPE-19 cell line = assay: Scavenging of ROS induced by risk factors of macular degeneration (4-HNE, Ang II) in ARPE-19 cells; format: cell-based; details: vs control group
Protocol: To measure scavenging effects of ROS in HUVEC cells that were induced by VEGF, 2′,7′-dichlorofluorescein diacetate (DCF-DA) was used. […] After […] at a concentration of 1×10^5, each of which well was coated with 0.2% gelatin, DCF-DA was cultured for 24 hours. Meanwhile, Compounds 8a and 8b were pre-treated for 3 hours, induced by VEGF for 15 minutes, and then, washed with PBS (pH 7.4) three times. Then, 10 μM of DCF-DA was placed in a EBM-2 medium to be treated for 30 minutes in a dark room. Then, DCF-DA was washed again with PBS three times, and then, subjected to measure intensity of fluorescence in the cells by using a fluorescence microscope.
According to a similar manner as in Experimental Example 2, a risk factor of macular degeneration, e.g., 4-hydroxynonenal (4-HNE) or angiotensin II (Ang II), were treated with an adult retinal pigment epithelium-19 (ARPE-19) cell line, so as to observe scavenging effects of ROS in Compounds 8a and 8b.

[2] = ARPE-19 treated with 4-hydroxynonenal (4-HNE)
[3] = ARPE-19 treated with angiotensin II (Ang II)

| Compound | inhibition at 1 µM (HT-29 cells / U937 cells) | Inhibition rates of angiogenesis (%) (A549 lung cancer cells; 0.001 pmol/CAM) | Inhibition rates of tumor growth (%) (A549 lung cancer cells; 0.001 pmol/CAM) | Inhibition rates of angiogenesis (%) (A549 lung cancer cells; 0.01 pmol/CAM) | Inhibition rates of tumor growth (%) (A549 lung cancer cells; 0.01 pmol/CAM) | Inhibition rates of angiogenesis (%) (A549 lung cancer cells; 0.1 pmol/CAM) | Inhibition rates of tumor growth (%) (A549 lung cancer cells; 0.1 pmol/CAM) | Inhibition rates of angiogenesis (%) (A549 lung cancer cells; 1.0 pmol/CAM) | Inhibition rates of tumor growth (%) (A549 lung cancer cells; 1.0 pmol/CAM) | inhibitory effects on angiogenesis and tumor growth (in words) (A549 lung cancer cells) | inhibition in vivo at 0.01 nmol/CAM [1] | ID50 against inhibition of angiogenesis [1] | intensity of fluorescence (ROS) (ARPE-19 cell line; [2]) | intensity of fluorescence (ROS) (ARPE-19 cell line; [3]) |
| --- | --- | --- | --- | --- | --- | --- | --- | --- | --- | --- | --- | --- | --- | --- |
| CC(=O)Nc1nc(C)c(O)c(C)c1C [Compound 8a, N-(5-hydroxy-3,4,6-trimethylpyridine-2-yl)acetamide] | 55.4% | 12.7 ± 6.5% | 20.3 ± 5.9% | 23.8 ± 5.2 % | 34.2 ± 5.3 % | 30.4 ± 3.7 % | 37.9 ± 8.0 % | 41.2 ± 1.4 % | 47.7 ± 4.1 % | inhibited angiogenesis upon tumorigenesis, as well as tumor growth | 84.8 ± 10% | 1.7 pg/CAM and 8.7 fmol/CAM | significant decrease in the intensity of fluorescence | significant decrease in the intensity of fluorescence |
| CCCCCCCCCCCC(=O)Nc1nc(C)c(O)c(C)c1C [Compound 8b, N-(5-hydroxy-3,4,6-trimethylpyridine-2-yl)dodecanamide] | 55.8% | 12.2 ± 4.4% | 21.7 ± 8.9% | 18.0 ± 3.2 % | 26.0 ± 10.0% | 21.3 ± 2.0 % | 31.3 ± 7.3 % | 24.7 ± 2.2 % | 38.2 ± 7.2 % | inhibited angiogenesis upon tumorigenesis, as well as tumor growth | 59.3 ± 5.4% | 5.0 pg/CAM and 14.9 fmol/CAM | significant decrease in the intensity of fluorescence | significant decrease in the intensity of fluorescence |
